Experimental data: patent US10571469B2, “Kit for labelling bacteria” (Centre National de la Recherche Scientifique (CNRS), priority 2012, dated 2020)

Key:
E. coli K12 = assay: Metabolic LPS labelling with KDO-N3, Cu(I) click with A488-yne, fluorescence microscopy; format: cell-based, Escherichia coli
E. coli 086 = assay: Metabolic labelling with KDO-N3, click chemistry, fluorescence microscopy; format: cell-based, Escherichia coli; settings: KDO-N3 4 mM, 12 hours; A488-yne-Cu(I) click 60 min
Shewanella oneidensis = assay: Metabolic labelling with KDO-N3, click chemistry, fluorescence microscopy (negative control strain); format: cell-based; settings: KDO-N3 4 mM, 12 hours, 28° C.; A488-yne-Cu(I) click 60 min
S. typhimurium 12023 = assay: Metabolic labelling with KDO-N3, click chemistry, fluorescence microscopy; format: cell-based, Salmonella typhimurium; settings: KDO-N3 4 mM, 12 hours; A488-yne-Cu(I) click 60 min
[1] = tested on: Legionella pneumophila strain Paris; format: cell-based; settings: KDO-N3 4 mM, 12 hours; A488-yne-Cu(I) click 60 min
Staphylococcus aureus = assay: Metabolic labelling with KDO-N3, click chemistry, fluorescence microscopy (negative control strain); format: cell-based; settings: Gram positive; KDO-N3 4 mM, 12 hours; A488-yne-Cu(I) click 60 min
Bacillus subtilis = assay: as above; format: cell-based; settings: Gram positive; KDO-N3 4 mM, 12 hours; A488-yne-Cu(I) click 60 min
[2] = mixture with B. subtilis, LB, 12 hours, 696 analyzed cells
[3] = mixture with E. coli, LB, 12 hours, 696 analyzed cells

[N-]=[N+]=NC[C@@H](O)[C@@H](O)[C@H](O)[C@H](O)CC(=O)C(=O)O [KDO-N3, 8-azido-3,8-dideoxy-D-manno-octulosonic acid]
cell-surface labeling (E. coli K12; KDO-N3 4 mM, 12 hours, A488-yne-Cu(I) click 60 min): efficient and well defined cell-surface labeling | labeling of bacteria (fluorescence) (E. coli K12; […], click with TGTA and A488-yne, after 5 min, control without KDO-N3 no signal): very bright labeling | location of fluorescence (E. coli K12; after click labelling with A488-yne, 5 min): mostly evident around the cell periphery | cell-surface labeling (E. coli 086): efficient and well defined cell-surface labeling | E. coli KDO negative (E. coli K12 sodA-mCherry; 9 cells, standard method error range about 10%): about 2% | assimilation in E. coli cells of the mixture (E. coli K12 sodA-mCherry; mixture with B. subtilis): assimilated in substantially only cultivable E. coli cells | KDO-N3+ cells, mCherry + (E. coli) (E. coli K12 sodA-mCherry; [2]): 517 | KDO-N3− cells, mCherry + (E. coli) (E. coli K12 sodA-mCherry; [2]): 9 | cell-surface labeling (Shewanella oneidensis): no labeling | cell-surface labeling (S. typhimurium 12023): efficient and well defined cell-surface labeling | B. subtilis false positive (B. subtilis; 4 KDO-N3+ B. subtilis cells): about 2% | assimilation in B. subtilis cells of the mixture (B. subtilis; mixture with E. coli): not in cultivable B. subtilis cells | KDO-N3+ cells, mCherry − (B. subtilis) (B. subtilis; [3]): 4 | KDO-N3− cells, mCherry − (B. subtilis) (B. subtilis; [3]): 166 | cell-surface labeling [1]: efficient and well defined cell-surface labeling | cell-surface labeling (Staphylococcus aureus): no labeling | cell-surface labeling (Bacillus subtilis): no labeling
